In patent publication US11691980B2, “Liphagal analog and multi-targeted kinase inhibitor containing liphagal or analog thereof” (TOHOKU UNIVERSITY, priority 2017, dated 2023):

Key:
Format in all cases: biochemical
[1] = molecular target: T1, PKCζ (Homo sapiens, UniProt Q05513); experiment: mobility shift assay
T1 construct: purchased Carna Biosciences

[2] = molecular target: T2, NEK1 (Homo sapiens, UniProt Q96PY6); experiment: mobility shift assay
T2 construct: purchased Carna Biosciences

[3] = molecular target: T3, TXK (Homo sapiens, UniProt P42681); experiment: mobility shift assay
T3 construct: purchased Carna Biosciences

[4] = molecular target: T4, FAK (Homo sapiens, UniProt Q05397); experiment: mobility shift assay
T4 construct: purchased Carna Biosciences

[5] = molecular target: T5, TRKA (Homo sapiens, UniProt P04629); experiment: mobility shift assay
T5 construct: purchased Carna Biosciences

[6] = molecular target: T6, MRCKβ (Homo sapiens, UniProt Q9Y5S2); experiment: mobility shift assay
T6 construct: purchased Carna Biosciences

[7] = molecular target: T7, MAP2K7_Cascade (Homo sapiens, UniProt O14733); experiment: mobility shift assay
T7 construct: purchased Carna Biosciences

[8] = molecular target: T8, PHKG1 (Homo sapiens, UniProt Q16816); experiment: mobility shift assay
T8 construct: purchased Carna Biosciences

[9] = molecular target: T9, EPHA2 (Homo sapiens, UniProt P29317); experiment: mobility shift assay
T9 construct: purchased Carna Biosciences

[10] = molecular target: T10, PEK (Homo sapiens, UniProt Q9NZJ5); experiment: IMAP Assay
T10 construct: purchased Carna Biosciences

[11] = molecular target: T11, PKCl (Homo sapiens, UniProt P41743); experiment: mobility shift assay
T11 construct: purchased Carna Biosciences
T11 sequence (P41743 whole entry): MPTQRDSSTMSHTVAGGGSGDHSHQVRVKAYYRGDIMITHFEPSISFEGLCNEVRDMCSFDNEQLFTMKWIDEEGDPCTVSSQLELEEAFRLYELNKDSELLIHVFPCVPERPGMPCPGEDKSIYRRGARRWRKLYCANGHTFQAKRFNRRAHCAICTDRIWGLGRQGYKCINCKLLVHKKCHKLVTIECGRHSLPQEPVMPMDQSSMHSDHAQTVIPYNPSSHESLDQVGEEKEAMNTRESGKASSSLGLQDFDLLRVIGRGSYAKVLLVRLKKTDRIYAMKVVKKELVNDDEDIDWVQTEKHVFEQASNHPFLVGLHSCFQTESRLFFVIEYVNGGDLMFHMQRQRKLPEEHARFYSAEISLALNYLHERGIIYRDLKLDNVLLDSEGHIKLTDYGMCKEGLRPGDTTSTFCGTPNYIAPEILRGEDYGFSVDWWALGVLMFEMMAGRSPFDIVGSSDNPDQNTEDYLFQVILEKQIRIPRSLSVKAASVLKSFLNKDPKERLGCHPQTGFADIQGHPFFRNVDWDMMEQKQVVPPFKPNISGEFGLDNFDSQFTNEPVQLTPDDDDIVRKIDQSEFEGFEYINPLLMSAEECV

[12] = molecular target: T12, ROCK1 (Homo sapiens, UniProt Q13464); experiment: mobility shift assay
T12 construct: purchased Carna Biosciences

[13] = molecular target: T13, FGFR2 (Homo sapiens, UniProt P21802); experiment: mobility shift assay
T13 construct: purchased Carna Biosciences

[14] = molecular target: T14, RET(M918T) (Homo sapiens, UniProt P07949, M918T); experiment: mobility shift assay
T14 construct: purchased Carna Biosciences
T14 sequence (P07949 29-1114 M918T): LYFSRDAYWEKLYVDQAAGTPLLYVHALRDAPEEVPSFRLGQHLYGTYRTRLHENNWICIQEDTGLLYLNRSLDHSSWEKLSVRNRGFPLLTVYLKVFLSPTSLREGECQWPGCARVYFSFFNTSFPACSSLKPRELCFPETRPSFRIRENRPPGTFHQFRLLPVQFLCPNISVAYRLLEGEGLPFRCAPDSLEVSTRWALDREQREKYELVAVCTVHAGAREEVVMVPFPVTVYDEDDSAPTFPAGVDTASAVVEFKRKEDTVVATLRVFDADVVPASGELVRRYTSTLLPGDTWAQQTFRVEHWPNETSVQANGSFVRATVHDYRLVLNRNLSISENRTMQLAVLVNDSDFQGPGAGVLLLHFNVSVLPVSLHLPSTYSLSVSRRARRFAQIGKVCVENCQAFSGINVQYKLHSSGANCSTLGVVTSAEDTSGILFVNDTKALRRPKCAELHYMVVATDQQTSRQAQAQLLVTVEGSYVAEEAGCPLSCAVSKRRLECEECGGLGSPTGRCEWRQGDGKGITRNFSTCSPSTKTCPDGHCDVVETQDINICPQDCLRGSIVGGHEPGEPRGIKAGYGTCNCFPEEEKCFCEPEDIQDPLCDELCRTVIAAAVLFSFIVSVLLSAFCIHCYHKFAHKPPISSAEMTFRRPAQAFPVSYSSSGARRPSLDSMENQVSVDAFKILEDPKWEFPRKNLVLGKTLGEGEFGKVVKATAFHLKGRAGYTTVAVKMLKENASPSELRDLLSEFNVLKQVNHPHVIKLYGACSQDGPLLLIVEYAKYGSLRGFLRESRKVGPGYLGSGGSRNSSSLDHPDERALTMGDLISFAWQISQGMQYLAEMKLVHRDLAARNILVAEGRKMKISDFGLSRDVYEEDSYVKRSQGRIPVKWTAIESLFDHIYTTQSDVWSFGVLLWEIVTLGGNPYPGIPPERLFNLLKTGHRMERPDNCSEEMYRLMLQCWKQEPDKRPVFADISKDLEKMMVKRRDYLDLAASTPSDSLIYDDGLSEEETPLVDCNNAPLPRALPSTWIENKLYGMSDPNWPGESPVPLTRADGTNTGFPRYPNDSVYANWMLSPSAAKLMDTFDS

[15] = molecular target: T15, KIT(D816V) (Homo sapiens, UniProt P10721, D816V); experiment: mobility shift assay
T15 construct: purchased Carna Biosciences

[16] = molecular target: T16, IGF1R (Homo sapiens, UniProt P08069); experiment: mobility shift assay
T16 construct: purchased Carna Biosciences

[17] = molecular target: T17, CK2α2/β (Homo sapiens, UniProt P19784); experiment: mobility shift assay
T17 construct: purchased Carna Biosciences

[18] = molecular target: CDK7/CycHMAT1 (Homo sapiens, UniProt P50613); experiment: mobility shift assay; parameters: purchased Carna Biosciences
CDK7/CycHMAT1, sequence (P50613 whole entry): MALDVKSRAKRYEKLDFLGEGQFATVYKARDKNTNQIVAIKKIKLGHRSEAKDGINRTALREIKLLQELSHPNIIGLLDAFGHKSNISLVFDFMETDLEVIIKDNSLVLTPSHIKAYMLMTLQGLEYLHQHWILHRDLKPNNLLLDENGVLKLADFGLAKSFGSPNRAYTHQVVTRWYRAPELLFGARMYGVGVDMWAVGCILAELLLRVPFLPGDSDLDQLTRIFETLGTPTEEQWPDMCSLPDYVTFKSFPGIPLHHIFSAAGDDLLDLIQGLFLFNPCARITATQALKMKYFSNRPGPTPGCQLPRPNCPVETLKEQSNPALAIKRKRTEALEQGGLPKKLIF
CDK7/CycHMAT1, sequence (P51946 whole entry partner): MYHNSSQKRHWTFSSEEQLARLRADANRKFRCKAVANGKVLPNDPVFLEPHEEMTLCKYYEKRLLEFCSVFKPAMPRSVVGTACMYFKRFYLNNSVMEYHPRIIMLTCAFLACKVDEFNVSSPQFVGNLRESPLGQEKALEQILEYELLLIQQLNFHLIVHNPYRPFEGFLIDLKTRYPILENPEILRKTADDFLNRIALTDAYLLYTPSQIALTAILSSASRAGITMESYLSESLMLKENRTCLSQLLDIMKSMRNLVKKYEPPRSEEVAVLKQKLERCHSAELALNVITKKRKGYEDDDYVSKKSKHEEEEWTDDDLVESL
CDK7/CycHMAT1, sequence (P51948 whole entry partner): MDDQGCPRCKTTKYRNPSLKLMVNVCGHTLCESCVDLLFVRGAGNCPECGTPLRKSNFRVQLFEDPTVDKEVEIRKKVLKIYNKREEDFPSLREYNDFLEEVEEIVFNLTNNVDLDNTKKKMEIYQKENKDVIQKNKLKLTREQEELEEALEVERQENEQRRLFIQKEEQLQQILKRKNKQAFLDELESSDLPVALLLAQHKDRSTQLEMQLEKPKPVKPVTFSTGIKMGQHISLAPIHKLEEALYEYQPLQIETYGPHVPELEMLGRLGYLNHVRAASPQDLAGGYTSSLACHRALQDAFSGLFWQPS

[19] = molecular target: T18, MOS_Cascade (Homo sapiens, UniProt P00540); experiment: mobility shift assay
T18 construct: purchased Carna Biosciences

[20] = molecular target: T19, AXL (Homo sapiens, UniProt P30530); experiment: mobility shift assay
T19 construct: purchased Carna Biosciences

[21] = molecular target: T20, p70S6K (Homo sapiens, UniProt P23443); experiment: mobility shift assay
T20 construct: purchased Carna Biosciences

[22] = molecular target: T21, WNK1 (Homo sapiens, UniProt Q9H4A3); experiment: mobility shift assay
T21 construct: purchased Carna Biosciences

[23] = molecular target: T22, MET (Homo sapiens, UniProt P08581); experiment: mobility shift assay
T22 construct: purchased Carna Biosciences

[24] = molecular target: T23, SLK (Homo sapiens, UniProt Q9H2G2); experiment: mobility shift assay
T23 construct: purchased Carna Biosciences

[25] = test system: ABL(E265K); experiment: mobility shift assay; details: 10 μM
[26] = molecular target: T24, AMFKα2/β1/γ1 (Homo sapiens, UniProt P54646); experiment: mobility shift assay
T24 construct: purchased Carna Biosciences

[27] = molecular target: T25, SRC (Homo sapiens, UniProt P12931); experiment: mobility shift assay
T25 construct: purchased Carna Biosciences

[28] = molecular target: T26, FGR (Homo sapiens, UniProt P09769); experiment: mobility shift assay
T26 construct: purchased Carna Biosciences

[29] = molecular target: T27, LTK (Homo sapiens, UniProt P29376); experiment: mobility shift assay
T27 construct: purchased Carna Biosciences

[30] = molecular target: T28, HGK (Homo sapiens, UniProt O95819); experiment: mobility shift assay
T28 construct: purchased Carna Biosciences

[31] = molecular target: CDK4/CycD3 (Homo sapiens, UniProt P11802); experiment: IC50 by mobility shift assay; details: Table 3, CDK4, mobility shift assay; read-out: IC50 (μM), Kinase CDK4/CycD3
Excerpt: Next, the compounds produced in Production Examples described above were each assessed for its inhibitory activity against CDK4 by mobility shift assay. In addition, a combination showing the highest inhibitory activity is indicated by italics.

[32] = molecular target: T29, FGFR3 (Homo sapiens, UniProt P22607); experiment: mobility shift assay
T29 construct: purchased Carna Biosciences

[33] = molecular target: T30, BMX (Homo sapiens, UniProt P51813); experiment: mobility shift assay
T30 construct: purchased Carna Biosciences

[34] = molecular target: T31, AurC (Homo sapiens, UniProt Q9UQB9); experiment: mobility shift assay
T31 construct: purchased Carna Biosciences

[35] = molecular target: T32, CK1γ2 (Homo sapiens, UniProt P78368); experiment: mobility shift assay
T32 construct: purchased Carna Biosciences
T32 sequence (P78368 whole entry): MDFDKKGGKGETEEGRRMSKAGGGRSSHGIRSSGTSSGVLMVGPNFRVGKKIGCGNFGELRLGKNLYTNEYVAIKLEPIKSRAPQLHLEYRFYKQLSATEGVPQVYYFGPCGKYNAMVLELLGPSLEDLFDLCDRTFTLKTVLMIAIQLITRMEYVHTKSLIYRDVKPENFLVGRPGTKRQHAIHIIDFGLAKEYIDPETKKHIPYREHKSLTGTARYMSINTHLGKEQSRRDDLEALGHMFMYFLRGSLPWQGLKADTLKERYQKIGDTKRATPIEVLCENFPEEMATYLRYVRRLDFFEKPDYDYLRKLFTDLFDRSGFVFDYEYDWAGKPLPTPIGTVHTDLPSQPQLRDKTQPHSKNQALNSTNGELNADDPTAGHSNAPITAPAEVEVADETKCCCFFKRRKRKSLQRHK

[36] = molecular target: T33, RET(S891A) (Homo sapiens, UniProt P07949, S891A); experiment: mobility shift assay
T33 construct: purchased Carna Biosciences
T33 sequence (P07949 29-1114 S891A): as the sequence (P07949 29-1114 M918T) above, with S863A, T890M counted along it

[37] = molecular target: T34, DDR1 (Homo sapiens, UniProt Q08345); experiment: mobility shift assay
T34 construct: purchased Carna Biosciences

[38] = molecular target: T35, PKCε (Homo sapiens, UniProt Q02156); experiment: mobility shift assay
T35 construct: purchased Carna Biosciences

[39] = molecular target: T36, COK6/CycD3 (Homo sapiens, UniProt Q00534); experiment: mobility shift assay
T36 construct: purchased Carna Biosciences
T36 sequence (Q00534 whole entry): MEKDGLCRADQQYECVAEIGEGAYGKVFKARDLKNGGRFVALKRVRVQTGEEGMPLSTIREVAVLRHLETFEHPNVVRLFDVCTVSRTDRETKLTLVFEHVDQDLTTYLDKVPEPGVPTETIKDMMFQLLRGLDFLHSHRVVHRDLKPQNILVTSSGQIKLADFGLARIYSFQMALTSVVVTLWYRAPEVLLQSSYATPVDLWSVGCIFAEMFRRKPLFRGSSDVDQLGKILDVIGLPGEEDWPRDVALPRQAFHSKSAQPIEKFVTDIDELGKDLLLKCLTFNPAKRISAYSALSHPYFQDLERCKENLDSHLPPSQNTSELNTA
T36 sequence (P30281 whole entry partner): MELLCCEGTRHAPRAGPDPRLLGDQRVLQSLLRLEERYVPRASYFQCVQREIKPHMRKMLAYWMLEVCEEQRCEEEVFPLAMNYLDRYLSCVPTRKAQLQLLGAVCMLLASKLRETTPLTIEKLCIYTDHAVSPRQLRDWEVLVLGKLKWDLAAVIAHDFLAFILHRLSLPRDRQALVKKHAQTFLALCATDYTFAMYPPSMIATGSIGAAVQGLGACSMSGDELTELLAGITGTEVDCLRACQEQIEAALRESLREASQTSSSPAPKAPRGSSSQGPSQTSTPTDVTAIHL

[40] = molecular target: T37, PLK3 (Homo sapiens, UniProt Q9H4B4); experiment: mobility shift assay
T37 construct: purchased Carna Biosciences

T2 sequence (Q96PY6 whole entry): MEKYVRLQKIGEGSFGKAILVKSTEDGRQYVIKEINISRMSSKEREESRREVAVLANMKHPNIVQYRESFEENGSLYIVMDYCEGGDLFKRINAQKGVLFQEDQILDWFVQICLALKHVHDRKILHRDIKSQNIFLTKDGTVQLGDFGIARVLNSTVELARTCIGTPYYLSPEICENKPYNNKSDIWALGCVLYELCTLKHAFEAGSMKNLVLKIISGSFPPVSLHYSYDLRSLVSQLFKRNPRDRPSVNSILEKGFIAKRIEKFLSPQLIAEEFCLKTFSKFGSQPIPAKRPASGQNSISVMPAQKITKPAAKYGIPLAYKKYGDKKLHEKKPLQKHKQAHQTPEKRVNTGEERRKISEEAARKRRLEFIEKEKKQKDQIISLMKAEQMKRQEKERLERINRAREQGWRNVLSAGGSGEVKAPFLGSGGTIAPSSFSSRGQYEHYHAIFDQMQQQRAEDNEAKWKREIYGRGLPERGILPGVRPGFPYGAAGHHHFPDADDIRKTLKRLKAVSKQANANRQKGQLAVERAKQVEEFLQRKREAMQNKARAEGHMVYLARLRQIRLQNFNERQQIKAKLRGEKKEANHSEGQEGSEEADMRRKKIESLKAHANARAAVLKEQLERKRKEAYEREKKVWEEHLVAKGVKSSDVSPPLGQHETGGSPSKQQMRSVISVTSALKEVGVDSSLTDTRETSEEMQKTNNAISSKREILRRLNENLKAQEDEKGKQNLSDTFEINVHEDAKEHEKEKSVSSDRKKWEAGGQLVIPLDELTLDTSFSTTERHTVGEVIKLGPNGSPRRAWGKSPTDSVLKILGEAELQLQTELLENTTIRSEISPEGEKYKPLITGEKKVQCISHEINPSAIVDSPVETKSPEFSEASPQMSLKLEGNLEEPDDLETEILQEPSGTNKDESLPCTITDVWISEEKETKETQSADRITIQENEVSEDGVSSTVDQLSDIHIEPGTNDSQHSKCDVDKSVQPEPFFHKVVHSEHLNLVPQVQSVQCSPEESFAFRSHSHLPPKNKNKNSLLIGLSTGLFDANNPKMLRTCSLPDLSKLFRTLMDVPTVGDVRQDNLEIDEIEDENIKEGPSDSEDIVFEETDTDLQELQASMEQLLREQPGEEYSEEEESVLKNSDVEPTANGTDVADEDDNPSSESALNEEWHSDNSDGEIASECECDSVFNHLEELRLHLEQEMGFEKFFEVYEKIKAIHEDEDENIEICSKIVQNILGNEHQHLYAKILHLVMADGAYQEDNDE

With `C[C@@H]1CC[C@H]2C(C)(C)CCC[C@]2(C)c2c1oc1c(C=O)c(O)c(O)cc21` [LG-1, liphagal] the inhibition at 10 µM [1] was -7.2%, the inhibition at 10 µM [2] was 13.9% and the inhibition at 10 µM [3] was 23.1%. For the same compound, the inhibition at 10 µM [4] was 24.5%, the inhibition at 10 µM [5] was 36.4% and the inhibition at 10 µM [6] was -1.9%. For the same compound, the inhibition at 10 µM [7] was 5.5%, the inhibition at 10 µM [8] was 21.7% and the inhibition at 10 µM [9] was 2.6%. For the same compound, the inhibition at 10 µM [10] was 13.2%, the inhibition at 10 µM [11] was 12.3% and the inhibition at 10 µM [12] was 0.5%. The inhibition at 10 µM [13] was -8.4%, the inhibition at 10 µM [14] was 5.9% and the inhibition at 10 µM [15] was 13%. For the same compound, the inhibition at 10 µM [16] was 8.7%, the inhibition at 10 µM [17] was 9% and the inhibition at 10 µM ([18]; CDK7/CycHMAT1) was 85.8%. For the same compound, the “inhibitory activity against CDK7” value ([18]; in words, 10 μM) was “Potent inhibitory activity”, the inhibition at 10 µM [19] was 29.5% and the inhibition at 10 µM [20] was -4.2%. It also gave an inhibition at 10 µM [21] of 15.9%, an inhibition at 10 µM [22] of 17.3% and an inhibition at 10 µM [23] of -1.3%. The inhibition at 10 µM [24] was 10.5%, the “% Inhibition” value [25] was −3.3% and the inhibition at 10 µM [26] was 44.1%. The inhibition at 10 µM [27] was -7.1%, the inhibition at 10 µM [28] was 9.3% and the inhibition at 10 µM [29] was 1.8%. The inhibition at 10 µM [30] was 1.2%, the IC50 [31] was 19.9 µM and the inhibition at 10 µM [32] was -4.4%. For the same compound, the inhibition at 10 µM [33] was 6.5%, the inhibition at 10 µM [34] was 36.3% and the inhibition at 10 µM [35] was -2.8%. For the same compound, the inhibition at 10 µM [36] was 2.1%, the inhibition at 10 µM [37] was 60.5% and the inhibition at 10 µM [38] was -46.9%. For the same compound, the inhibition at 10 µM ([39]; COK6/CycD3) was 72.7%, the “inhibitory activity against CDK6” value ([39]; in words, 10 μM) was “Potent inhibitory activity” and the inhibition at 10 µM [40] was 31.1%.
